Assay results as given in ChEMBL document CHEMBL5032500, “Adenosine A2AR/A1R Antagonists Enabling Additional H3R Antagonism for the Treatment of Parkinson's Disease” (J Med Chem, 2021).

Tests used:
Assay type in all cases: cell-based
Adenosine receptor A1 = biological target: T1, Adenosine receptor A1 (Homo sapiens, UniProt P30542); test: Displacement of [3H]CCPA from human recombinant adenosine A1 receptor expressed in CHO cells by liquid scintillation counting analysis
T1 sequence (P30542 whole entry): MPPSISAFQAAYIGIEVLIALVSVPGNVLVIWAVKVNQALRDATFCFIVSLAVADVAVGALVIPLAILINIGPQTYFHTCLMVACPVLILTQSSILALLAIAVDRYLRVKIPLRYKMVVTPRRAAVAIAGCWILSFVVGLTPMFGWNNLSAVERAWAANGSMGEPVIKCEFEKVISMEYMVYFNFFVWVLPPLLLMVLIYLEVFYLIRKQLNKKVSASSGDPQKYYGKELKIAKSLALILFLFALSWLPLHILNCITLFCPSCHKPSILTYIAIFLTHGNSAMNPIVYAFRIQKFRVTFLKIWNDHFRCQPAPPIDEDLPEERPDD

[1] = biological target: T2, Adenosine receptor A2b (Homo sapiens) (UniProt P29275); test: Displacement of [3H]PSB-603 from human recombinant adenosine A2B receptor expressed in CHO cells at 1 uM by liquid scintillation counting analysis
T2 sequence (whole entry): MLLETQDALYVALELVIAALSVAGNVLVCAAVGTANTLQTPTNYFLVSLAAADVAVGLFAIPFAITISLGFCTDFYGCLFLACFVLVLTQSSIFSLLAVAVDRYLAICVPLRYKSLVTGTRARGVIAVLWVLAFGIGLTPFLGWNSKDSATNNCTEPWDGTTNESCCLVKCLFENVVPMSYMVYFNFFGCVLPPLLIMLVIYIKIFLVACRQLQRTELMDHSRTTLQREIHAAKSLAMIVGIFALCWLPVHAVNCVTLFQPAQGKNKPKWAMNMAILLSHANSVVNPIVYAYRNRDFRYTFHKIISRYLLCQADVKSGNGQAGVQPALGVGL

Adenosine receptor A2a = Adenosine receptor A2a (Homo sapiens, UniProt P29274); test: Displacement of [3H]MSX-2 from human recombinant adenosine A2A receptor expressed in CHO cells by liquid scintillation counting analysis
Sequence of Adenosine receptor A2a (P29274 whole entry): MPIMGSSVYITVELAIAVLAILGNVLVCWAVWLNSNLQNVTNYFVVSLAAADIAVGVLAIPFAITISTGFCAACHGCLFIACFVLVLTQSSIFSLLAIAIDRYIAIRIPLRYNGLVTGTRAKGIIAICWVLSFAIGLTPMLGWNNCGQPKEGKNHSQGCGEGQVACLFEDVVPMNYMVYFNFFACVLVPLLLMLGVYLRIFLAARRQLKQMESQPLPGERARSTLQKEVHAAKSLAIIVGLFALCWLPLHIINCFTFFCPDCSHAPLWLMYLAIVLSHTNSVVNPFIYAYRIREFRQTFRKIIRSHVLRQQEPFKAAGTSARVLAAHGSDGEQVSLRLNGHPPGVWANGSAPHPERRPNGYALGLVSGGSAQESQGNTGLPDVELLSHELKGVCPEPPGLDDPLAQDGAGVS

Adenosine receptor A3 = biological target: T3, Adenosine receptor A3 (Homo sapiens, UniProt P0DMS8); test: Displacement of [3H]PSB-11 from human recombinant adenosine A3 receptor expressed in CHO cells by liquid scintillation counting analysis
T3 sequence (P0DMS8 whole entry): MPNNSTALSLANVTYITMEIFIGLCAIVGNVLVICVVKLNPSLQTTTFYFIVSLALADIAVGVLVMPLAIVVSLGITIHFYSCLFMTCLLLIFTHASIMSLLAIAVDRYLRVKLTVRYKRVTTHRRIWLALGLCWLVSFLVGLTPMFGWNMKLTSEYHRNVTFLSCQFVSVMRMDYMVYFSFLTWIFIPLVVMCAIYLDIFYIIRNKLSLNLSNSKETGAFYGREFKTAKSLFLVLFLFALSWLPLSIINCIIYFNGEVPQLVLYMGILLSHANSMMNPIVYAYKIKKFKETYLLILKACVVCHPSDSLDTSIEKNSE

Adenosine receptor A2b = biological target: T4, Adenosine receptor A2b (Homo sapiens, UniProt P29275); test: Displacement of [3H]PSB-603 from human recombinant adenosine A2B receptor expressed in CHO cells by liquid scintillation counting analysis
T4 sequence (P29275 whole entry): T2 sequence (whole entry)

Histamine H3 receptor = Histamine H3 receptor (Homo sapiens, UniProt Q9Y5N1); test: Displacement of [3H] N-alpha methylhistamine from human recombinant histamine H3 receptor expressed in HEK293 cells measured after 90 mins
Sequence of Histamine H3 receptor (Q9Y5N1 whole entry): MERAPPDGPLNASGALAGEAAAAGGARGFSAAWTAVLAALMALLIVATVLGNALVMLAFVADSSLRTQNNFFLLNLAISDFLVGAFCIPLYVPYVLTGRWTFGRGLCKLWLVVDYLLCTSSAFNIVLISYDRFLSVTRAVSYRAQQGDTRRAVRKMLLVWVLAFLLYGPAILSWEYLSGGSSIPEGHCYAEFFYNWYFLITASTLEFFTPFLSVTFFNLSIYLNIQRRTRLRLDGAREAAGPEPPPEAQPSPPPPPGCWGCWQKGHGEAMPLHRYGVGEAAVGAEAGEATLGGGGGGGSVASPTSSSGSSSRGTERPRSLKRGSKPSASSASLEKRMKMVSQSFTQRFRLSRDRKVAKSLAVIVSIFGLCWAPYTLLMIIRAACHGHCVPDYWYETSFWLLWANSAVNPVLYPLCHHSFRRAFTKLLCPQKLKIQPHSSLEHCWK

[2] = biological target: T5, Adenosine receptor A3 (Homo sapiens) (UniProt P0DMS8); test: Displacement of [3H]PSB-11 from human recombinant adenosine A3 receptor expressed in CHO cells at 1 uM by liquid scintillation counting analysis
T5 sequence (whole entry): T3 sequence (P0DMS8 whole entry)

[3] = biological target: T6, Adenosine receptor A1 (Homo sapiens) (UniProt P30542); test: Displacement of [3H]CCPA from human recombinant adenosine A1 receptor expressed in CHO cells at 1 uM by liquid scintillation counting analysis
T6 sequence (whole entry): T1 sequence (P30542 whole entry)

| SMILES | Ki (Adenosine receptor A1) [nM] | inhibition [1] [%] | Ki (Adenosine receptor A2a) [nM] | Ki (Adenosine receptor A3) [nM] | Ki (Adenosine receptor A2b) [nM] | Ki (Histamine H3 receptor) [nM] | inhibition [2] [%] | inhibition [3] [%] | inhibition ([2]; filed as antagonist) [%] | inhibition ([3]; filed as antagonist) [%] |
| --- | --- | --- | --- | --- | --- | --- | --- | --- | --- | --- |
| Nc1nc(-c2ccc(OCCCN3CCCCC3)cc2)c2c(n1)-c1ccccc1C2 | 2510 | 28 | 717 | > 1000 | > 1000 | 0.49 | 24 | – | – | – |
| Nc1nc(-c2ccc(OCCCN3CCCCC3)cc2)c2c(n1)-c1ccc(OCCCN3CCCCC3)cc1C2 | > 1000 | 13 | 941 | > 1000 | > 1000 | 0.6 | – | 23 | 50 | – |
| Nc1nc(-c2ccc(OCCCN3CCCCC3)cc2)c2c(n1)-c1ccc(OCCCN3CCCCC3)cc1C2=O | ≥ 1000 | 15 | 203 | > 1000 | > 1000 | 0.31 | 32 | – | – | 44 |
| Nc1nc(-c2ccccc2)c2c(n1)-c1ccc(OCCCN3CCCCC3)cc1C2=O | 367 | – | 142 | > 1000 | 114 | 36 | 12 | – | – | – |
